Laboratory results reported in ChEMBL document CHEMBL1123029, “Synthesis and biological evaluation of phosphonamidate peptide inhibitors of enkephalinase and angiotensin-converting enzyme” (J Med Chem, 1985).

Molecular target: T1, Neprilysin (Rattus norvegicus, UniProt P07861)
T1 sequence (P07861 whole entry): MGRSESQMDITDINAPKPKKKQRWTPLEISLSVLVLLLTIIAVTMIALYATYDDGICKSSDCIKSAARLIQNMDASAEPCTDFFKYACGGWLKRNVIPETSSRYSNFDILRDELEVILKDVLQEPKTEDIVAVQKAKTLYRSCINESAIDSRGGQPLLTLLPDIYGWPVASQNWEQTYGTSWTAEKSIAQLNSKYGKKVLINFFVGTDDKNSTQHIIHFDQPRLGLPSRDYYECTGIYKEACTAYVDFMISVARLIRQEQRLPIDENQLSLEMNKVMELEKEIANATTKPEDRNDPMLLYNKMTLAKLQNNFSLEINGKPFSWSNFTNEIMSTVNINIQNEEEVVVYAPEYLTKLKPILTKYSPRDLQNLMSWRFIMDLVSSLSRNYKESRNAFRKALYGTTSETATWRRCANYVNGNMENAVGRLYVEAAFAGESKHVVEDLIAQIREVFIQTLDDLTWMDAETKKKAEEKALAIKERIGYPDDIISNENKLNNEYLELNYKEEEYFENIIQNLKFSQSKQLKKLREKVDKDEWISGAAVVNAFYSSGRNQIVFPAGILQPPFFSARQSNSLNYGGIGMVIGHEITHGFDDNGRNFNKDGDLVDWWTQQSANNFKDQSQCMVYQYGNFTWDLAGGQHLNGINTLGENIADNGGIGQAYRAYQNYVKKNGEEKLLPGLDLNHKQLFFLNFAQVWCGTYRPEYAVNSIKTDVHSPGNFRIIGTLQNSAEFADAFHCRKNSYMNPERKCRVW
Assay: Binding affinity towards enkephalinase (metalloendopeptidase, E.C.3.4.24.11) of rat kidney

SMILES	Ki [µM]
CC(=O)NCP(=O)(O)NC(Cc1ccccc1)NC(CC(C)C)C(=O)O (configuration not stated)	0.85
CCOP(=O)(CNC(C)=O)NC(Cc1ccccc1)NC(CCSC)C(=O)O (configuration not stated)	160
CSCCC(NC(Cc1ccccc1)NP(=O)(O)CNC(C)=O)C(=O)O (configuration not stated)	0.14
CC(C)CC(NC(Cc1ccccc1)NP(=O)(O)CNC(=O)c1ccccc1)C(=O)O (configuration not stated)	10.6
CC(C)C[C@H](NP(=O)(O)O[C@@H]1O[C@@H](C)[C@H](O)[C@@H](O)[C@H]1O)C(=O)N[C@@H](Cc1c[nH]c2ccccc12)C(=O)O [PHOSPHORAMIDON]	0.004
CC(C)CC(NC(Cc1ccccc1)NP(=O)(O)CNC(=O)CCc1ccccc1)C(=O)O (configuration not stated)	1210
CC(C)CC(NC(Cc1ccccc1)NP(=O)(O)CNC(=O)Cc1ccccc1)C(=O)O (configuration not stated)	80.2
